In patent US20130316374A1, “BREAST CANCER DIAGNOSTICS” (IMBA - INSTITUT FUR MOLEKULARE BIOTECHNOLOGIE GMBH, priority 2010, published 2013):
“Also recorded” adds a separate entry of the source.

Tests used:
[1] = system: mammary epithelial cells; experiment: Epithelial proliferation in mammary glands, in situ Ki67 immunostaining; format: in vivo, mouse
Protocol: a, Epithelial proliferation in mammary glands of control littermates and RANK^Δmam females 3 days after sham treatment and MPA implantation. Proliferation was determined by in situ Ki67 immunostaining. b,c, Marked increase of the stem cell-enriched CD24^+CD49^high population (MaSC) in MPA-treated mammary glands in control but not in RANK^Δmam mammary glands. b, Representative FACS profiles showing CD24 and CD49 expression of lineage negative (CD31^− (endothelial cells) CD45^− (hematopoietic cells) […] (erythroid cells)) of mammary MaSCs from MPA- or sham-treated 8-week old virgin females. c, Quantification of MaSC-enriched CD24^+CD49^high population from mammary glands of MPA- or sham-treated virgin RANK^Δmam and littermate control females. For all MaSCs experiments mice were treated with MPA for 3 days. n=4 per group+/−sem. *P<0.05; ***P<0.001 (Student's t-test).
At least 1000 mammary gland epithelial cells were counted per mouse. n=3 mice per genotype. **P<0.005; ***P<0.001 (Student's t-test). b, Quantification of in situ Ki67 immunostained cells per acinus from mammary glands of control littermate and RANK^Δmam females on day 3 after MPA s.c. implantation. […] At least 1000 cells were counted per mammary gland. n=3 per genotype. In b, and c, data are shown as percentage of acini/ducts with low (<20% of epithelial cells are Ki67^+), medium (20-80% of epithelial cells are Ki67^+) and high (>80% of epithelial cells are Ki67^+) numbers of proliferating cells+/−sem. ***P<0.001; *P<0.03 (Student's t-test). d, Epithelial proliferation in mammary glands of control littermates and RANK^Δmam females 1 day after i.p. injection of PBS or RANKL (1 μg). Proliferation was determined in situ Ki67 immunostaining. Magnifications ×40. e, Quantification of epithelial proliferation 1 day after i.p. injection of PBS or RANKL (1 μg). Mean percentages of Ki67 positive cells+/−sem are shown. *P<0.03; n=5 (Student's t-test).
For histological analysis, 5 μm sections were cut and stained with hematoxylin and eosin (H&E). Whole-mount staining of mammary glands was performed as described. For immunoperoxidase staining paraffin-embedded sections were […] and antigenic epitopes exposed using a 10 mM citrate buffer or microwaving. Sections were incubated with antibodies to cytokeratine 5, cytokeratine 14, E-cadherin, anti-Ki67 (Novocastra) and anti-active Caspase 3 (Cell Signaling) and visualized using peroxidase-conjugated secondary antibodies. Histomorphometric indices (proliferation and apoptosis) were calculated as the number of positive epithelial cells divided by the total number of epithelial cells, with no fewer than 1000 nuclei for Ki67 stainings and no fewer than 5000 cells for active Caspase 3 staining counted per section.
Recently it has been reported that endogenous progesterone affects the numbers of Lin-CD24+CD49f^hi stem cells during pregnancy^15 and the estrous cycle^16. In both studies, the RANKL/RANK system was implicated based on in vivo whole body Ab blocking studies and RT-PCR expression, however, it was not known whether this is a direct effect of RANKL-RANK in mammary epithelial cells rather than a secondary effect. Therefore it was assayed whether progestins such as MPA can also expand Lin-CD24+CD49f^hi cells.

[2] = system: SKBR3 breast cancer cells; experiment: Growth curve of SKBR3 breast cancer cells; format: cell-based, human; conditions: RANKL (1 μg/ml), 3 days
Protocol: a, Western blotting for phosphorylated (P) p65 NFκB, total p65 NFκB, phosphorylated (P) IκBα, total IκBα, phosphorylated (P) ERK1/2, total ERK1/2, phosphorylated (P) p38-MAPK, and p38-MAPK in human SKBR3 breast cancer cells in response to RANKL stimulation (1 μg/ml). Data are representative of 3 experiments. b, Growth curve of SKBR3 breast cancer cells cultured in normal growth medium (control, DMEM supplemented with 10% FCS) or in the presence of RANKL (1 μg/ml). Cell numbers were determined by counting live cells (trypan blue-exclusion) over 3 days. c, Onset of palpable mammary tumors in NFATc1^Δmam (n=10) and age matched littermate control (n=16) females treated with MPA pellets and DMBA. Data are shown as percentage of tumor free mice after the last DMBA challenge. No significant difference was found. d, Quantification of NFATc1 mRNA expression in purified mammary epithelial cells (MECs) and MPA-driven mammary tumors from NFATc1^Δmam and littermate control females. mRNA was determined by qRT-PCR. Data are shown as fold change compared to control (+/−sem). n=5 Per group. *P<0.05 (Student's t-test).

[3] = system: human SKBR3 breast cancer cells; experiment: Soft-Agar Colony Formation Assay; format: cell-based; conditions: RANKL (1 μg/ml), 18 days in culture
Protocol: a, Western blotting for phosphorylated (P) IKKα, total IKKα, phosphorylated (P) p65 NFκB, total p65 NFκB, phosphorylated (P) IκBα, and total IκBα in isolated primary mouse mammary gland epithelial cells (MECs) in response to RANKL stimulation (1 μg/ml). […] is shown as loading control. b, Western blotting for IKKα, IKKβ, IKKγ, phosphorylated (P) p65 NFκB, total p65 NFκB, phosphorylated (P) IκBα, and total IκBα in pooled late stage mammary adenocarconimas (n=4 for each lane) that developed in control, RANK^Δmam, and IKKα^Δmam females. β-actin is shown as loading control c, Expression of RANK, CyclinD1, and p21 mRNA in late stage mammary adenocacinomas that developed in control, RANK^Δmam, and IKKα^Δmam females. Expression was determined by qRT-PCR. Data are mean values+/−sem. n=4 per group. d, Soft-Agar Colony Formation Assay. Growth of human SKBR3 breast cancer cells in soft agar in response to stimulation with RANKL (1 μg/ml) or EGF (100 ng/ml). […] Apoptosis was detected by immunostaining for active Caspase 3. f, Apoptotic nuclei of epithelial cells (arrows) are shown for representative mammary gland sections. Magnifications ×40. g, Quantification of mammary epithelial apoptosis. A minimum of 5000 nuclei was counted for each mouse. […]

## CC(=O)O[C@]1(C(C)=O)CC[C@H]2[C@@H]3C[C@H](C)C4=CC(=O)CC[C@]4(C)[C@H]3CC[C@@]21C [MPA, medroxyprogesterone acetate]
[1]; RANK^Δmam females
  MPA-induced proliferation of mammary epithelial cells: significantly reduced
[1]; RANK^Δmam females, day 3 after MPA s.c. implantation
  acini with very low proliferation rates (Ki67): more than 60%
[1]; control females, day 3 after MPA s.c. implantation
  acini with signs of medium to high proliferation (Ki67): ~80%
[1]; wild type population, MPA treatment
  proliferation of mammary epithelial cells: triggers massive proliferation of mammary epithelial cells

B1: RANKL: Receptor Activator of NF-κB Ligand; recombinant murine RANKL used for stimulation (protein, UniProt O35235 139-316, looked up)
Tumor necrosis factor ligand …: FSGAPAMMEGSWLDVAQRGKPEAQPFAHLTINAASIPSGSHKVTLSSWYHDRGWAKISNMTLSNGKLRVNQDGFYYLYANICFRHHETSGSVPTDYLQLMVYVVKTSIKIPSSHNLMKGGSTKNWSGNSEFHFYSINVGGFFKLRAGEEISIQVSNPSLLDPDQDATYFGAFKVQDID
[1]; nulliparous females, 1 day after i.p. injection of RANKL (1 μg)
  proliferation of mammary gland epithelial cells: triggered proliferation of mammary gland epithelial cells
[2]
  proliferation of SKBR3 cells: induced
[3]
  anchorage-independent growth in soft agar: induced growth of SKBR3 cells in soft agar; also recorded: macroscopic colonies formed
